Data as given in US7285536B2, “Anti-cancer therapeutic compounds” (Yeda Research and Development Co., Ltd., priority 2001, dated 2007).

Test system: 3LL lewis lung carcinoma, variant D122
Assay: 3LL Lewis lung carcinoma (D122) experimental lung metastasis in mice: survival and lung weight
Type: in vivo, C57BL/6 mice
Description: C57BL/6, 12 months old male mice were obtained from the Jackson Laboratory.
Syngeneic, 3LL lewis lung carcinoma, variant D122, was obtained from the Weizmann Institute of Science. This tumor line develops metastases in the lungs after intravenous (iv) inoculation.
Cells were cultured in DMEM medium containing high glucose and supplemented with 10% FCS, glutamine and penicillin.
Cells were incubated 24 hr before inoculation into the mice with the different disaccharides (300 ng/ml) in culture medium. Then, the cells were washed and injected i. v., (500,000 cells per mouse) in 100 μl PBS containing 30 ng of the corresponding disaccharide.
The number of dead mice was counted each day after the inoculation was performed. The mice were sacrificed at day 50 and the weights of their lung were determined.
Each group, injected by one of the disaccharides, contained 16 mice. Control mice received PBS alone. The different disaccharides, were injected to the mice subcutaneously (30 ng per mouse in 0.1 ml of PBS), one day before and one and two days after cell inoculation.

[1] = day 49 after 3LL injection, 16 mice per group, DS 30 ng per mouse s.c. one day before and one and two days after inoculation

CC1(C)OC(COS(=O)(=O)O)[C@@](C)(COC[C@@]2(C)OC(C(=O)O)=CC(O)C2OS(=O)(=O)O)C(O)C1N (stereo partly drawn) [DS 8892, α-ΔUA-2S-[1→4]-GlcN-6S]
responders at 30 ng (Mus musculus, Lewis lung carcinoma, sc, 1176 h, day 49 after 3LL injection, [live mice/total mice] × 100, PBS control 6.2): 25%
inhibition in vivo at 30 ng (Mus musculus, Lewis lung carcinoma, sc, 1200 h, day 50 after 3LL injection, [1-(weights of treated group/weights of control group)] × 100, read-out: Decrease (%) of lung weight): 28.8%
dead mice [1]: 12
live mice [1]: 4
Weights of lungs ± SD (day 50 after 3LL injection, PBS 0.92): 0.66 ± 0.18 gr.
anti-tumor treatment / inhibition of tumor development (in words) (mice inoculated i.v. with 3LL cells, treated with DS): did not inhibit the tumor development at all
